Measurements as given in ChEMBL document CHEMBL4476883, “Hydroxy formamide derivatives and their use” (2017).

How the values were obtained:
[1] = molecular target: T1, Bone morphogenetic protein 1 (Homo sapiens, UniProt P13497); test: Inhibition of C-terminal FLAG-6x-His epitope tagged and N-terminal human RAGE signal sequence tagged human BMP1 (23 to 721 amino acids) expressed in CHO-E1A cells pre-incubated for 10 mins before promyostatin peptide substrate addition and measured after 60 mins using 0.5 nM BMP1 by FRET based assay; type: cell-based
T1 sequence (P13497 whole entry): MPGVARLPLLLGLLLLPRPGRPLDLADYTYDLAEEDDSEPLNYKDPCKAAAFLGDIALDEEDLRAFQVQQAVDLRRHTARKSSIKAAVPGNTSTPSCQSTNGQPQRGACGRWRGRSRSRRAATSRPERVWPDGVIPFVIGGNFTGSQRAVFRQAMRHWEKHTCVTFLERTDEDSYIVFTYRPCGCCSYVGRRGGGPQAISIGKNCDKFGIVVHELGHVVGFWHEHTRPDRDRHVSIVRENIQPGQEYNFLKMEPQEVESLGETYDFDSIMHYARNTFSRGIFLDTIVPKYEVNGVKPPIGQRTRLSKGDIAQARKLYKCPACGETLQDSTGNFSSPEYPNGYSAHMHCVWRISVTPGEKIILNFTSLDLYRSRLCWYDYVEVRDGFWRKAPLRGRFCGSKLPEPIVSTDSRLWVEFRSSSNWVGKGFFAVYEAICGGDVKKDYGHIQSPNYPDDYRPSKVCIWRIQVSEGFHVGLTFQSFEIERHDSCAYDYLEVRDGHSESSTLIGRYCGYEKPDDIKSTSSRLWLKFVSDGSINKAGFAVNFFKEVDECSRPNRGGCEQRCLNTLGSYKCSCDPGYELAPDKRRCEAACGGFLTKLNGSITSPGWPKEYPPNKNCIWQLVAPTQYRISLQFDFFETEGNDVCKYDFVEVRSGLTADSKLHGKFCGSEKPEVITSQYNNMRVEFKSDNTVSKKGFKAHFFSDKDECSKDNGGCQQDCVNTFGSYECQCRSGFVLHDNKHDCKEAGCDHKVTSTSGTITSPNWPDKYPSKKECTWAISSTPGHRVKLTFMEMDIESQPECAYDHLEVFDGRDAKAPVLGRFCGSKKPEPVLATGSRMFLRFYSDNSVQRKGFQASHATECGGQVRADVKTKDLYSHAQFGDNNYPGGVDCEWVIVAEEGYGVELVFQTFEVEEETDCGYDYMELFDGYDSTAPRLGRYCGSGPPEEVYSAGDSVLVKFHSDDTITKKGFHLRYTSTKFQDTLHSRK

[2] = molecular target: Tolloid-like protein 1 (Homo sapiens, UniProt O43897, I156V/N221S/V284A); test: Inhibition of recombinant human TLL1 I156V/N221S/V284A mutant expressed in CHOE1A cells pre-incubated for 10 mins before promyostatin peptide substrate addition and measured after 60 mins by FRET based assay; type: cell-based
[3] = molecular target: T2, Tolloid-like protein 2 (Homo sapiens, UniProt Q9Y6L7); test: Inhibition of C-terminal Avi-6x-His epitope tagged and N-terminal human RAGE signal sequence tagged recombinant human TLL2 (26 to 1015 amino acids) expressed in CHOE1A cells incubated for 60 mins with promyostatin peptide substrate by FRET based assay; type: cell-based
T2 sequence (Q9Y6L7 whole entry): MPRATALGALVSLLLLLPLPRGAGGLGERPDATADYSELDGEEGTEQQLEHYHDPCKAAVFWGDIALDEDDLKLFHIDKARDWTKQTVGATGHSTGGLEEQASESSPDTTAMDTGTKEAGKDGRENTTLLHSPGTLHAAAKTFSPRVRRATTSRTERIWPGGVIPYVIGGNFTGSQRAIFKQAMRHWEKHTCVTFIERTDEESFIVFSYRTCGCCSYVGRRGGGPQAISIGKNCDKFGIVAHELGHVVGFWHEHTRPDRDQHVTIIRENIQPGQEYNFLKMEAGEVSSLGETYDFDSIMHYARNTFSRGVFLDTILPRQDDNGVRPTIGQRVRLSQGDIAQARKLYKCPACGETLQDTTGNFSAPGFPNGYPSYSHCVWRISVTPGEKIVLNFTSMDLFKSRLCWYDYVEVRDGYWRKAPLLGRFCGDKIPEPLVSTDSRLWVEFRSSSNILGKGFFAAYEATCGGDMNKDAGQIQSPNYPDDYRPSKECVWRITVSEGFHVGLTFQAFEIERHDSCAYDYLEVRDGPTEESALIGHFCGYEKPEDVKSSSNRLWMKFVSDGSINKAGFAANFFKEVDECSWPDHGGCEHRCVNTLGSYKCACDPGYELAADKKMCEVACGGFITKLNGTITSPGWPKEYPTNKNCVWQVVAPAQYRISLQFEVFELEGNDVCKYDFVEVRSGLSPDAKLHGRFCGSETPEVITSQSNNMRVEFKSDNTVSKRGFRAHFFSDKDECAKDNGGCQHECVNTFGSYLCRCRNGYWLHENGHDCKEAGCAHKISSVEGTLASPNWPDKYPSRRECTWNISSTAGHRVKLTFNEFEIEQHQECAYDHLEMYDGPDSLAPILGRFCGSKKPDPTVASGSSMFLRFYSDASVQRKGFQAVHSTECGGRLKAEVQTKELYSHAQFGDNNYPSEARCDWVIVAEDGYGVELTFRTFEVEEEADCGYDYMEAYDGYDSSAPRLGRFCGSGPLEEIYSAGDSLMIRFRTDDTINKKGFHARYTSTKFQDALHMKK

[4] = Reduction in PICP levels in human cardiac fibroblasts incubated for 24 to 48 hrs by ELISA; type: functional
[5] = molecular target: T1, Bone morphogenetic protein 1; test: Inhibition of C-terminal FLAG-6x-His epitope tagged and N-terminal human RAGE signal sequence tagged human BMP1 (23 to 721 amino acids) expressed in CHO-E1A cells pre-incubated for 10 mins before promyostatin peptide substrate addition and measured after 30 mins using 50 nM BMP1 by FRET based assay; type: cell-based

Sequence of Tolloid-like protein 1 (O43897 148-1013 I156V/N221S/V284A limits assumed): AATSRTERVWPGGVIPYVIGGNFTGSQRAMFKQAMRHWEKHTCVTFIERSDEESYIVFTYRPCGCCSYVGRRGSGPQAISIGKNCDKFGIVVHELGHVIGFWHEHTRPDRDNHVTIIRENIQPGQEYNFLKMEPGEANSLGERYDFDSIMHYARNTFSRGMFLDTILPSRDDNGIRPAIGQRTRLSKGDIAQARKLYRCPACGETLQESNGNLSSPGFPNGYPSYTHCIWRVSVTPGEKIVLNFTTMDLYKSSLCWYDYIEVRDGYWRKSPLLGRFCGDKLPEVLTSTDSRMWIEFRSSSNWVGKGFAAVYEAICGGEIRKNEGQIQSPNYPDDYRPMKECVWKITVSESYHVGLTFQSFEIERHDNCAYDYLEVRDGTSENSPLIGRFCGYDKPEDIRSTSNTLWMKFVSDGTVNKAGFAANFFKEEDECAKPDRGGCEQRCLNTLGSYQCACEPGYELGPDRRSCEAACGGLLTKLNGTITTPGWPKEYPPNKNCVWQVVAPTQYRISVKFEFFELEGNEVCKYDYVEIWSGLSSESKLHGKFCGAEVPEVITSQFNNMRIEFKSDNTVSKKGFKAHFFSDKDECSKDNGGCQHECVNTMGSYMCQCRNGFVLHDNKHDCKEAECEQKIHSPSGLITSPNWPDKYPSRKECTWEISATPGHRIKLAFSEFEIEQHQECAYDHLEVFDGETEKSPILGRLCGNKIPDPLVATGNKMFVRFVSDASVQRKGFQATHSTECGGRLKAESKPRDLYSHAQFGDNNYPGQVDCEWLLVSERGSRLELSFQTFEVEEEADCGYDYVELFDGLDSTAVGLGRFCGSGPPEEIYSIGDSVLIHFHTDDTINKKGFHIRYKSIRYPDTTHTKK

| Structure (SMILES) | IC50 [1] [nM] | IC50 [2] [nM] | IC50 [3] [nM] | IC50 [5] [nM] | IC50 [4] [nM] |
| --- | --- | --- | --- | --- | --- |
| CCCCC[C@H](CN(O)C=O)C(=O)NCNC(=O)c1cccc(-c2cccc(O)c2)c1 | < 126 | < 398 | < 631 | < 251 | < 20000 |
| CCCCC[C@@H](C(=O)NCNC(=O)c1cccc(-c2ccc(C(=O)N[C@@H](CCC(=O)O)C(=O)O)cc2)n1)[C@@H](CC)N(O)C=O | < 126 | < 398 | < 631 | < 251 | < 20000 |
| CCCCC[C@H](CN(O)C=O)C(=O)NCNC(=O)c1cccc(-c2ccc(F)c(OC)c2)n1 | < 126 | < 398 | < 631 | < 251 | < 20000 |
| CCCCC[C@@H](C(=O)NCNC(=O)c1cccc(-c2cc(O)cc(P(=O)(O)O)c2)n1)[C@@H](CC)N(O)C=O | < 126 | < 398 | < 631 | < 251 | < 20000 |
| CCCCC[C@H](CN(O)C=O)C(=O)NCNC(=O)c1cccc(-c2ccccc2)n1 | < 126 | < 398 | < 631 | < 251 | < 20000 |
| CCCCC[C@H](CN(O)C=O)C(=O)NCNC(=O)c1cccc(-c2ccc(OC(F)(F)F)cc2)n1 | < 126 | < 398 | < 631 | < 251 | < 20000 |
| CCCCC[C@H](CN(O)C=O)C(=O)NCNC(=O)c1cccc(-c2cccc(OC)n2)n1 | < 126 | < 398 | < 631 | < 251 | < 20000 |
| CCCCC[C@@H](C(=O)NCNC(=O)c1cccc(-c2ccc(C(=O)N[C@@H](CC(=O)O)C(=O)O)c(F)c2)n1)[C@@H](CC)N(O)C=O | < 126 | < 398 | < 631 | < 251 | < 20000 |
| CCCCC[C@@H](C(=O)NCNC(=O)c1cccc(-c2ccc(C(=O)O)c(O)c2)c1)[C@@H](CC)N(O)C=O | < 126 | < 398 | < 631 | < 251 | < 20000 |
| CCCCC[C@@H](C(=O)NCNC(=O)c1cncc(-c2ccc(C(=O)O)c(OCC)c2)n1)[C@@H](CC)N(O)C=O | < 126 | < 398 | < 631 | < 251 | < 20000 |
| CCCCC[C@H](CN(O)C=O)C(=O)NCNC(=O)c1cccc(-c2cccc(N(C)C)c2)c1 | < 126 | < 398 | < 631 | < 251 | < 20000 |
| CCCCC[C@H](CN(O)C=O)C(=O)NCNC(=O)c1cccc(-c2cccc(NS(C)(=O)=O)c2)c1 | < 126 | < 398 | < 631 | < 251 | < 20000 |
| CCCCC[C@@H](C(=O)NCNC(=O)c1cccc(-c2cc(OCC)cc(C(=O)N[C@@H](CC(=O)O)C(=O)O)c2)n1)[C@@H](CC)N(O)C=O | < 126 | < 398 | < 631 | < 251 | < 20000 |
| CCCCC[C@@H](C(=O)NCNC(=O)c1cccc(-c2ccc(P(=O)(O)O)c(OCC)c2)n1)[C@@H](CC)N(O)C=O | < 126 | < 398 | < 631 | < 251 | < 20000 |
| CCCCC[C@H](CN(O)C=O)C(=O)NCNC(=O)c1cccc(-c2cc(OC)nnc2OC)c1 | < 126 | < 398 | < 631 | < 251 | < 20000 |
| CCCCC[C@@H](C(=O)NCNC(=O)c1cccc(-c2ccc(C(=O)N[C@H](CC(=O)O)C(=O)O)cc2)n1)[C@@H](CC)N(O)C=O | < 126 | < 398 | < 631 | < 251 | < 20000 |
| CCCCC[C@@H](C(=O)NCNC(=O)c1cc(C(=O)O)cc(-c2cc(OCC)cc(C(=O)O)c2)c1)[C@@H](CC)N(O)C=O | < 126 | – | – | < 251 | < 20000 |

Second part, led by results:

| IC50 [1] [nM] | IC50 [2] [nM] | IC50 [3] [nM] | IC50 [5] [nM] | Structure (SMILES) | IC50 [4] [nM] |
| --- | --- | --- | --- | --- | --- |
| < 126 | < 398 | < 631 | < 251 | CCCCC[C@@H](C(=O)NCNC(=O)c1cccc(-c2cc(C(=O)OCC)cc(S(N)(=O)=O)c2)n1)[C@@H](CC)N(O)C=O | < 20000 |
| < 126 | < 398 | < 631 | < 251 | CCCCC[C@H](CN(O)C=O)C(=O)NCNC(=O)c1cccc(-c2cccc(S(C)(=O)=O)c2)c1 | < 20000 |
| < 126 | < 398 | < 631 | < 251 | CCCCC[C@@H](C(=O)NCNC(=O)c1cccc(-c2cc(OCC)cc(P(=O)(O)O)c2)n1)[C@@H](CC)N(O)C=O | < 20000 |
| < 126 | < 398 | < 631 | < 251 | CCCCC[C@@H](C(=O)NCNC(=O)c1cccc(-c2cc(OCC)cc(C(=O)N(CC(=O)O)CC(=O)O)c2)n1)[C@@H](CC)N(O)C=O | < 20000 |
| < 126 | < 398 | < 631 | < 251 | CCCCC[C@H](CN(O)C=O)C(=O)NCNC(=O)c1cccc(-c2cccc(OC)c2)c1 | < 20000 |
| < 126 | < 398 | < 631 | < 251 | CCCCC[C@H](CN(O)C=O)C(=O)NCNC(=O)c1cccc(-c2cc(OC)ccc2OC)c1 | < 20000 |
| < 126 | < 398 | < 631 | < 251 | CCCCC[C@@H](C(=O)NCNC(=O)c1cc(C(=O)O)cc(-c2ccccc2)c1)[C@@H](CC)N(O)C=O | < 20000 |
| < 126 | < 398 | < 631 | < 251 | CCCCC[C@H](CN(O)C=O)C(=O)NCNC(=O)c1cccc(-c2cncc(OC)c2)c1 | < 20000 |
| < 126 | < 398 | < 631 | < 251 | CCCCC[C@@H](C(=O)NCNC(=O)c1cccc(-c2cccc(OC)c2F)c1F)[C@@H](CC)N(O)C=O | < 20000 |
| < 126 | < 398 | < 631 | < 251 | CCCCC[C@H](CN(O)C=O)C(=O)NCNC(=O)c1cncc(-c2ccccc2)n1 | < 20000 |
| < 126 | < 398 | < 631 | < 251 | CCCCC[C@@H](C(=O)NCNC(=O)c1cccc(-c2cc(OCC)cc(C(=O)N[C@@H](CC(=O)O)C(=O)O)c2)c1)[C@@H](CC)N(O)C=O | < 20000 |
